Experimental data published in the supplement of paper PMC9663587.

Tests used:
Test in all cases: increase in dead-cell fraction, 72 h; higher = more death;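 further: breast cancer cell lines in 384-well plates, stained with Hoechst plus LIVE/DEAD far red dye and imaged, cells above an LDR intensity threshold counted dead, Hoechst-negative corpses included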
YKL-5-124 = compound: C=CC(=O)Nc1ccc(C(=O)Nc2[nH]nc3c2CN(C(=O)N[C@H](CN(C)C)c2ccccc2)C3(C)C)cc1 [YKL-5-124]
BSJ-03-123 = compound: CC(=O)c1c(C)c2cnc(Nc3ccc(N4CCN(CCOCCOCCOCCNC(=O)COc5cccc6c5C(=O)N(C5CCC(=O)NC5=O)C6=O)CC4)cn3)nc2n(C2CCCC2)c1=O [BSJ-03-123]
[1] = compound: CC(=O)c1c(C)c2cnc(Nc3ccc(N4CCNCC4)cn3)nc2n(C2CCCC2)c1=O
[2] = compound: CCN1CCN(Cc2ccc(Nc3ncc(F)c(-c4cc(F)c5nc(C)n(C(C)C)c5c4)n3)nc2)CC1
Neratinib/HKI272 = compound: CCOc1cc2ncc(C#N)c(Nc3ccc(OCc4ccccn4)c(Cl)c3)c2cc1NC(=O)/C=C/CN(C)C [Neratinib/HKI272]
[3] = compound: CCc1cnn2c(NCc3ccc[n+]([O-])c3)cc(N3CCCC[C@H]3CCO)nc12

With PDX1258 the “increase in dead-cell fraction” value (YKL-5-124; 0.001 µM) was 0.019, the “increase in dead-cell fraction” value (YKL-5-124; 0.003162 µM) was 0.0602 and the “increase in dead-cell fraction” value (YKL-5-124; 0.01 µM) was 0.0734. For the same cell line, the “increase in dead-cell fraction” value (YKL-5-124; 0.03162 µM) was 0.107, the “increase in dead-cell fraction” value (YKL-5-124; 0.1 µM) was 0.033 and the “increase in dead-cell fraction” value (YKL-5-124; 0.3162 µM) was 0.165. The “increase in dead-cell fraction” value (YKL-5-124; 1 µM) was 0.153, the “increase in dead-cell fraction” value (YKL-5-124; 3.162 µM) was 0.153 and the “increase in dead-cell fraction” value (YKL-5-124; 10 µM) was 0.298. For the same cell line, the “increase in dead-cell fraction” value (BSJ-03-123; 0.001 µM) was -0.0086, the “increase in dead-cell fraction” value (BSJ-03-123; 0.003162 µM) was 0.027 and the “increase in dead-cell fraction” value (BSJ-03-123; 0.01 µM) was -0.004. The “increase in dead-cell fraction” value (BSJ-03-123; 0.03162 µM) was -0.0154, the “increase in dead-cell fraction” value (BSJ-03-123; 0.1 µM) was 0.0044 and the “increase in dead-cell fraction” value (BSJ-03-123; 0.3162 µM) was -0.0026. The “increase in dead-cell fraction” value (BSJ-03-123; 1 µM) was -0.001, the “increase in dead-cell fraction” value (BSJ-03-123; 3.162 µM) was -0.0102 and the “increase in dead-cell fraction” value (BSJ-03-123; 10 µM) was 0.284. For the same cell line, the “increase in dead-cell fraction” value ([1]; 0.0003162 µM) was 0.0009, the “increase in dead-cell fraction” value ([1]; 0.001 µM) was -0.0052 and the “increase in dead-cell fraction” value ([1]; 0.003162 µM) was -0.0004. The “increase in dead-cell fraction” value ([1]; 0.01 µM) was 0.0095, the “increase in dead-cell fraction” value ([1]; 0.03162 µM) was 0.0043 and the “increase in dead-cell fraction” value ([1]; 0.1 µM) was 0.0062. For the same cell line, the “increase in dead-cell fraction” value ([1]; 0.3162 µM) was -0.0028, the “increase in dead-cell fraction” value ([1]; 1 µM) was -0.0014 and the “increase in dead-cell fraction” value ([1]; 3.162 µM) was 0.0061. The “increase in dead-cell fraction” value ([2]; 0.001 µM) was 0.0001, the “increase in dead-cell fraction” value ([2]; 0.003162 µM) was -0.0098 and the “increase in dead-cell fraction” value ([2]; 0.01 µM) was -0.0015. The “increase in dead-cell fraction” value ([2]; 0.03162 µM) was -0.003, the “increase in dead-cell fraction” value ([2]; 0.1 µM) was -0.0037 and the “increase in dead-cell fraction” value ([2]; 0.3162 µM) was 0.0003. For the same cell line, the “increase in dead-cell fraction” value ([2]; 1 µM) was 0.0382, the “increase in dead-cell fraction” value ([2]; 3.162 µM) was 0.142 and the “increase in dead-cell fraction” value ([2]; 10 µM) was 0.354. For the same cell line, the “increase in dead-cell fraction” value (Neratinib/HKI272; 0.0003162 µM) was 0.0046, the “increase in dead-cell fraction” value (Neratinib/HKI272; 0.001 µM) was 0.0126 and the “increase in dead-cell fraction” value (Neratinib/HKI272; 0.003162 µM) was 0.0014. For the same cell line, the “increase in dead-cell fraction” value (Neratinib/HKI272; 0.01 µM) was -0.0047, the “increase in dead-cell fraction” value (Neratinib/HKI272; 0.03162 µM) was 0.0084 and the “increase in dead-cell fraction” value (Neratinib/HKI272; 0.1 µM) was 0.0159. The “increase in dead-cell fraction” value (Neratinib/HKI272; 0.3162 µM) was 0.0244, the “increase in dead-cell fraction” value (Neratinib/HKI272; 1 µM) was 0.0372 and the “increase in dead-cell fraction” value (Neratinib/HKI272; 3.162 µM) was 0.118. The “increase in dead-cell fraction” value ([3]; 0.0001 µM) was -0.0003, the “increase in dead-cell fraction” value ([3]; 0.0003162 µM) was -0.0056 and the “increase in dead-cell fraction” value ([3]; 0.001 µM) was -0.0037. The “increase in dead-cell fraction” value ([3]; 0.003162 µM) was 0.0067, the “increase in dead-cell fraction” value ([3]; 0.01 µM) was 0.0568 and the “increase in dead-cell fraction” value ([3]; 0.03162 µM) was 0.537. The “increase in dead-cell fraction” value ([3]; 0.1 µM) was 0.662, the “increase in dead-cell fraction” value ([3]; 0.3162 µM) was 0.643 and the “increase in dead-cell fraction” value ([3]; 1 µM) was 0.658.
